In patent publication US20250388605A1, “HETEROBIFUNCTIONAL COMPOUNDS AND METHODS OF TREATING DISEASE” (Halda Therapeutics OpCo, Inc., priority 2022, published 2025):

How the values were obtained:
[1] = test system: T-Rex 293 cell line SC3 cells having increased expression of androgen receptor protein due to exposure to doxycycline; experiment: Cellular growth inhibition, T-Rex 293 SC3 cells with doxycycline (increased androgen receptor expression), CellTiter-Glo; type: cell-based; settings: T-Rex 293 SC3 cells with 10 ng/mL doxycycline (increased androgen receptor expression), 72 hours, CellTiter-Glo 2.0
Procedure, shortened: (§1)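 Doxycycline (10 ng/mL) was either included or omitted to toggle wild-type androgen receptor expression in SC3 cells, a T-Rex 293 clone, grown in stripped-serum, phenol red-free medium. After 72 hours with compound, viable cells were quantified by CellTiter-Glo 2.0.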

[2] = test system: T-Rex 293 cell line SC3 cells lacking increased expression of androgen receptor protein; experiment: Cellular growth inhibition, T-Rex 293 SC3 cells without doxycycline (no increased androgen receptor expression), CellTiter-Glo; type: cell-based; settings: T-Rex 293 SC3 cells not exposed to doxycycline (no increased androgen receptor expression), 72 hours
Procedure, shortened: as §1

[3] = test system: T-Rex 293 cell line SC cells lacking increased expression of progesterone receptor isoform B protein; experiment: Cellular growth inhibition assay, T-Rex 293 SC cells not exposed to doxycycline (no increased progesterone receptor isoform B expression), CellTiter-Glo; type: cell-based; settings: T-Rex 293 SC cells without doxycycline (no increased PR isoform B), 72 hours
[4] = test system: T47D cells; experiment: Cellular Growth Inhibition Assay for T47D Cells (CellTiter-Glo); type: cell-based, human; settings: 72 hours
Procedure, shortened: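 GI50 values derive from four-parameter regression of CellTiter-Glo 2.0 luminescence, using zero luminescence as baseline. Human breast cancer T47D cells (3000/well; DMEM, 10% FBS, 0.2 units/mL insulin) were exposed for 72 h to compound dilutions at 0.5% DMSO, with dosing starting 24 h after seeding.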

| GI50 ([4]; Homo sapiens) | GI50 [4] | SMILES | GI50 [1] | GI50 [2] | GI50 [3] |
| --- | --- | --- | --- | --- | --- |
| < 500 nM | – | CCS(=O)(=O)Nc1ccc(Oc2cccc(OCCOC3CCN(c4ccc(C(=O)N[C@H]5C(C)(C)[C@H](Oc6ccc(C#N)c(Cl)c6)C5(C)C)cn4)CC3)c2)c(-c2cn(C)c(=O)c3[nH]ccc23)c1 [Compound I-70, N-((1r, 3r)-3-(3-chloro-4-cyanophenoxy)-2,2,4,4-tetramethylcyclobutyl)-6-(4-(2-(3-(4-(ethylsulfonamido)-2-(6-methyl-7-oxo-6,7-dihydro-1H-pyrrolo[2,3-c]pyridin-4-yl)phenoxy)phenoxy)ethoxy)piperidin-1-yl)nicotinamide] | < 500 nM | < 500 nM | < 500 nM |
| – | < 500 nM | CN(CC1CCN(c2ncc(C(=O)N[C@H]3C(C)(C)[C@H](Oc4ccc(C#N)c(Cl)c4)C3(C)C)cn2)CC1)C1(c2ccc(Oc3ccc(C(C)(C)O)cc3-c3cn(C)c(=O)c4[nH]ccc34)cc2)COC1 [Compound I-255] | < 500 nM | 500 to 1500 nM | 1500 to 3000 nM |
| 500 to 1500 nM | – | Cn1cc(-c2cc(C(C)(C)O)ccc2Oc2ccc(CCC3CCN(c4ncc(C(=O)N[C@H]5C(C)(C)[C@H](Oc6ccc(C#N)c(Cl)c6)C5(C)C)cn4)CC3)cc2)c2cc[nH]c2c1=O [Compound I-203] | < 500 nM | > 3000 nM | > 3000 nM |
| – | < 500 nM | CCS(=O)(=O)Nc1ccc(Oc2cccc(OC3CC(C4CCN(c5ncc(C(=O)N[C@H]6C(C)(C)[C@H](Oc7ccc(C#N)c(Cl)c7)C6(C)C)cn5)CC4)C3)c2)c(-c2cn(C)c(=O)c3[nH]ccc23)c1 (stereo partly drawn) [Compound I-104] | < 500 nM | 500 to 1500 nM | > 3000 nM |
| < 500 nM | – | CCS(=O)(=O)c1ccc(Oc2ccc(OCC3CCN(c4ncc5c(n4)CN([C@H]4C(C)(C)[C@H](Cc6ccc(C#N)c(Cl)c6)C4(C)C)C5=O)CC3)cc2)c(-c2cn(C)c(=O)c3[nH]ccc23)c1 [Compound I-220] | < 500 nM | < 500 nM | < 500 nM |
| < 500 nM | – | CCS(=O)(=O)Nc1ccc(Oc2cccc(OC3CCC4(CC3)CCN(c3ncc(C(=O)N[C@H]5C(C)(C)[C@H](Oc6ccc(C#N)c(Cl)c6)C5(C)C)cn3)CC4)c2)c(-c2cn(C)c(=O)c3[nH]ccc23)c1 [Compound I-45] | < 500 nM | > 3000 nM | > 3000 nM |
| 500 to 1500 nM | – | CC(C)N(C1CCN(c2ncc(C(=O)N[C@H]3C(C)(C)[C@H](Oc4ccc(C#N)c(Cl)c4)C3(C)C)cn2)CC1)C1CN(c2cccc(Oc3ccc(C(C)(C)O)cc3-c3cn(C)c(=O)c4[nH]ccc34)c2F)C1 [Compound I-221] | < 500 nM | > 3000 nM | 1500 to 3000 nM |
| < 500 nM | – | CCS(=O)(=O)Nc1ccc(Oc2cccc(N3CC4(CN(CC5CCN(c6ncc(C(=O)N[C@H]7C(C)(C)[C@H](Oc8ccc(C#N)c(Cl)c8)C7(C)C)cn6)CC5)C4)C3)c2)c(-c2cn(C)c(=O)c3[nH]ccc23)c1 [Compound I-35, N-((1r, 3r)-3-(3-chloro-4-cyanophenoxy)-2,2,4,4-tetramethylcyclobutyl)-2-(4-((6-(3-(4-(ethylsulfonamido)-2-(6-methyl-7-oxo-6,7-dihydro-1H-pyrrolo[2,3-c]pyridin-4-yl)phenoxy)phenyl)-2,6-diazaspiro[3.3]heptan-2-yl)methyl)piperidin-1-yl)pyrimidine-5-carboxamide] | < 500 nM | 1500 to 3000 nM | > 3000 nM |
| < 500 nM | – | Cn1cc(-c2cc(C(C)(C)O)ccc2Oc2ccc(N3CC(OC4CCN(c5ncc(C(=O)N[C@H]6C(C)(C)[C@H](Oc7ccc(C#N)c(Cl)c7)C6(C)C)cn5)CC4)C3)cc2)c2cc[nH]c2c1=O [Compound I-219] | < 500 nM | < 500 nM | > 3000 nM |
| – | < 500 nM | CCS(=O)(=O)Nc1ccc(Oc2ccc(OCC3CCN(c4ncc(C(=O)N[C@H]5C(C)(C)[C@H](Oc6ccc(C#N)c(Cl)c6)C5(C)C)cn4)CC3)cc2)c(-c2cn(C)c(=O)c3[nH]ccc23)c1 [Compound I-138] | < 500 nM | < 500 nM | < 500 nM |
| < 500 nM | – | Cn1cc(-c2cc(C(C)(C)O)ccc2Oc2ccc(N3CC(CC4CN(c5ncc(C(=O)N[C@H]6C(C)(C)[C@H](Oc7ccc(C#N)c(Cl)c7)C6(C)C)cn5)C4)C3)cc2)c2cc[nH]c2c1=O [Compound I-280] | < 500 nM | 1500 to 3000 nM | < 500 nM |
| < 500 nM | – | CCS(=O)(=O)Nc1ccc(Oc2cccc(OCCOC3CCN(c4cnc(C(=O)N[C@H]5C(C)(C)[C@H](Oc6ccc(C#N)c(Cl)c6)C5(C)C)cn4)CC3)c2)c(-c2cn(C)c(=O)c3[nH]ccc23)c1 [Compound I-71, N-((1r, 3r)-3-(3-chloro-4-cyanophenoxy)-2,2,4,4-tetramethylcyclobutyl)-5-(4-(2-(3-(4-(ethylsulfonamido)-2-(6-methyl-7-oxo-6,7-dihydro-1H-pyrrolo[2,3-c]pyridin-4-yl)phenoxy)phenoxy)ethoxy)piperidin-1-yl)pyrazine-2-carboxamide] | < 500 nM | < 500 nM | < 500 nM |
| < 500 nM | – | Cn1cc(-c2cc(C(C)(C)O)ccc2Oc2ccc(CCCC3CC4(C3)CN(c3ncc(C(=O)N[C@H]5C(C)(C)[C@H](Oc6ccc(C#N)c(Cl)c6)C5(C)C)cn3)C4)cc2)c2cc[nH]c2c1=O [Compound I-268] | < 500 nM | 500 to 1500 nM | < 500 nM |
| < 500 nM | – | Cn1cc(-c2cc(C(C)(C)O)ccc2Oc2ccc(CC3CCN(c4ncc(C(=O)N[C@H]5C(C)(C)[C@H](Oc6ccc(C#N)c(Cl)c6)C5(C)C)cn4)CC3)cc2)c2cc[nH]c2c1=O [Compound I-201] | < 500 nM | 500 to 1500 nM | 500 to 1500 nM |
| < 500 nM | – | CN(c1ccc(Oc2ccc(C(C)(C)O)cc2-c2cn(C)c(=O)c3[nH]ccc23)cc1)C1CCN(c2ncc(C(=O)N[C@H]3C(C)(C)[C@H](Oc4ccc(C#N)c(Cl)c4)C3(C)C)cn2)CC1 [Compound I-197] | < 500 nM | < 500 nM | < 500 nM |
| 500 to 1500 nM | – | Cc1ccc(CCCOC2CCN(c3ncc(C(=O)N[C@H]4C(C)(C)[C@H](Oc5ccc(C#N)c(Cl)c5)C4(C)C)cn3)CC2)c(C)c1Oc1ccc(C(C)(C)O)cc1-c1cn(C)c(=O)c2[nH]ccc12 [Compound I-195] | < 500 nM | > 3000 nM | > 3000 nM |
| < 500 nM | – | Cn1cc(-c2cc(C(C)(C)O)ccc2Oc2ccc(N3CC(CN4CC5CC4CN5c4ncc(C(=O)N[C@H]5C(C)(C)[C@H](Oc6ccc(C#N)c(Cl)c6)C5(C)C)cn4)C3)cc2)c2cc[nH]c2c1=O (stereo partly drawn) [Compound I-228] | < 500 nM | < 500 nM | < 500 nM |
| < 500 nM | – | CN(C1CCN(c2ncc(C(=O)N[C@H]3C(C)(C)[C@H](Oc4ccc(C#N)c(Cl)c4)C3(C)C)cn2)CC1)C1CN(c2ccc(Oc3ccc(C(C)(C)O)cc3-c3cn(C)c(=O)c4[nH]ccc34)cc2)C1 [Compound I-208] | < 500 nM | < 500 nM | < 500 nM |
